Data: US8658661B2, “Oxadiazole inhibitors of leukotriene production” (Boehringer Ingelheim International GmbH, priority 2010, dated 2014)

Legend:
[1] = test system: synthesis of LTB4 in human whole blood; test: Human whole blood assay (inhibition of LTB4 synthesis, calcimycin stimulated); format: cell-based; settings: heparinized human whole blood, calcimycin 20 μM, plasma LTB4
How it was run: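 LTB4 in plasma was quantified by HTRF immunoassay. Before that, compound-treated heparinized whole blood (15 min, 37 °C) received 20 μM final calcimycin for a further 30 min at 37 °C, followed by centrifugation at 1500×g.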

[2] = biological target: T1, recombinant human FLAP protein (Homo sapiens, UniProt P20292); test: FLAP binding assay (SPA, displacement of [125I]L-691,831); settings: membranes of sf9 cells expressing recombinant human FLAP; [125I]L-691,831 probe; read-out: FLAP binding IC50
T1 construct: made in house; host or cells: Sf9 insect cells (100,000×g membrane pellet used)
T1 sequence (P20292 1-161): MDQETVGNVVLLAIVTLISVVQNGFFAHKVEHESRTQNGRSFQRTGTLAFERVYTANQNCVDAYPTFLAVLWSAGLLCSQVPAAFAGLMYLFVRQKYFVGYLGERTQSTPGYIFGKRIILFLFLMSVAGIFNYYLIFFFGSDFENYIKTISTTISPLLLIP
How it was run: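 Membranes from sf9 cells expressing human FLAP in pH 7.5 Tris buffer (MgCl2, EDTA, PMSF). Non-specific binding defined with 10 μM cold L-691,831.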

IC50 [1] [nM]	IC50 [2] [nM]	SMILES
120	11	CC(C)N1CCN(c2nc(C(C)(c3ccc(-c4cnc(N)nc4)cc3)C(C)C)no2)CC1 (centres unmarked) [Example 264, 5-(4-{1-[5-(4-Isopropyl-piperazin-1-yl)-[1,2,4]oxadiazol-3-yl]-1,2-dimethyl-propyl}-phenyl)-pyrimidin-2-ylamine]
51	3.3	Cn1cc(-c2nc([C@@](C)(c3ccc(-c4ccc(N)nc4)cc3)C3CC3)no2)cn1 [Example 181, 5-(4-{(R)-1-Cyclopropyl-1-[5-(1-methyl-1H-pyrazol-4-yl)-[1,2,4]oxadiazol-3-yl]-ethyl}-phenyl)-pyridin-2-ylamine]
89	2.1	CC(C)C(C)(c1ccc(-c2cnc(N)nc2)cc1)c1noc(-c2cccc(=O)n2C)n1 (centres unmarked) [Example 165, 6-(3-{2-[4-(2-aminopyrimidin-5-yl)phenyl]-3-methylbutan-2-yl}-1,2,4-oxadiazol-5-yl)-1-methylpyridin-2(1H)-one]
25	1.5	COCCNc1cnc(-c2nc(C(C)(c3ccc(-c4cnc(N)nc4)cc3)C3CC3)no2)cn1 (centres unmarked) [Example 42, 5-{4-[1-cyclopropyl-1-(5-{5-[(2-methoxyethyl)amino]pyrazin-2-yl}-1,2,4-oxadiazol-3-yl)ethyl]phenyl}pyrimidin-2-amine]
91	2.6	Cn1cc(-c2nc([C@@](C)(c3ccc(-c4cnc(N)nc4)cc3)C3CCC3)no2)cn1 [Example 121, 5-(4-{(1R)-1-cyclobutyl-1-[5-(1-methyl-1H-pyrazol-4-yl)-1,2,4-oxadiazol-3-yl]ethyl}phenyl)pyrimidin-2-amine]
> 5000	350	CC(C)C(C)(c1ccc(-c2cnc(N)nc2)cc1)c1noc(CCC(=O)O)n1 (centres unmarked) [Example 94, 3-(3-{2-[4-(2-aminopyrimidin-5-yl)phenyl]-3-methylbutan-2-yl}-1,2,4-oxadiazol-5-yl)propanoic acid]
600	9.3	C[C@](c1ccc(-c2ccc(N)nc2)cc1)(c1noc(-c2cnc(N3CCNCC3)cn2)n1)C1CC1 [Example 268, 5-(4-{(S)-1-Cyclopropyl-1-[5-(3,4,5,6-tetrahydro-2H-[1,2′]bipyrazinyl-5′-yl)-[1,2,4]oxadiazol-3-yl]-ethyl}-phenyl)-pyridin-2-ylamine]
> 5000	490	CN(C)C(=O)Cn1cc(-c2nc([C@](C)(c3ccc(-c4cnc(N)nc4)cc3)C3CCC3)no2)cn1 [Example 105, 2-[4-(3-{(1S)-1-[4-(2-aminopyrimidin-5-yl)phenyl]-1-cyclobutylethyl}-1,2,4-oxadiazol-5-yl)-1H-pyrazol-1-yl]-N,N-dimethylacetamide]
190	6.8	C[C@@](c1ccc(-c2cnc(N)nc2)cc1)(c1noc(-c2cn[nH]c2)n1)C1CC1 [Example 48, 5-(4-{(R)-1-cyclopropyl-1-[5-(1H-pyrazol-4-yl)-[1,2,4]oxadiazol-3-yl]-ethyl}-phenyl)-pyrimidin-2-ylamine]
390	21	CC(C)C(C)(c1ccc(-c2cnc(N)nc2)cc1)c1noc(N2CCS(=O)(=O)CC2)n1 (centres unmarked) [Example 168, 5-(4-{1-[5-(1,1-Dioxo-1lambda6-thiomorpholin-4-yl)-[1,2,4]oxadiazol-3-yl]-1,2-dimethyl-propyl}-phenyl)-pyrimidin-2-ylamine]
230	5.9	C[C@@](c1ccc(-c2cnc(N)nc2)cc1)(c1noc(-c2cnn(CCN)c2)n1)C1CC1 [Example 190, 5-[4-((R)-1-{5-[1-(2-Amino-ethyl)-1H-pyrazol-4-yl]-[1,2,4]oxadiazol-3-yl}-1-cyclopropyl-ethyl)-phenyl]-pyrimidin-2-ylamine]
94	1.7	CC(C)C(C)(c1ccc(-c2cnc(N)nc2)cc1)c1noc(-c2cccnc2)n1 (centres unmarked) [Example 3, 5-(4-{3-methyl-2-[5-(pyridin-3-yl)-1,2,4-oxadiazol-3-yl]butan-2-yl}phenyl)pyrimidin-2-amine]
110	2.5	CC(C)[C@](C)(c1ccc(-c2cnc(N)nc2)cc1)c1noc(-c2ccn(C)n2)n1 [Example 16, 5-(4-{(2R)-3-methyl-2-[5-(1-methyl-1H-pyrazol-3-yl)-1,2,4-oxadiazol-3-yl]butan-2-yl}phenyl)pyrimidin-2-amine]
89	1.9	COc1ccncc1-c1nc(C(C)(c2ccc(-c3cnc(N)nc3)cc2)C(C)C)no1 (centres unmarked) [Example 11, 5-(4-{2-[5-(4-methoxypyridin-3-yl)-1,2,4-oxadiazol-3-yl]-3-methylbutan-2-yl}phenyl)pyrimidin-2-amine]
83	4.6	CC(C)C(C)(c1ccc(-c2cnc(N)nc2)cc1)c1noc(-c2cnn(CC(C)(C)O)c2)n1 (centres unmarked) [Example 159, 1-[4-(3-{2-[4-(2-aminopyrimidin-5-yl)phenyl]-3-methylbutan-2-yl}-1,2,4-oxadiazol-5-yl)-1H-pyrazol-1-yl]-2-methylpropan-2-ol]
2700	1.4	CC(C)C(C)(c1ccc(-c2cnc(N)nc2)cc1)c1noc(-c2cnn(CC(C)(C)C(=O)O)c2)n1 (centres unmarked) [Example 164, 3-[4-(3-{2-[4-(2-aminopyrimidin-5-yl)phenyl]-3-methylbutan-2-yl}-1,2,4-oxadiazol-5-yl)-1H-pyrazol-1-yl]-2,2-dimethylpropanoic acid]
1800	330	CC(C)C(C)(c1ccc(-c2cnc(N)nc2)cc1)c1noc(C2CCN(C)CC2)n1 (centres unmarked) [Example 150, 5-(4-{3-methyl-2-[5-(1-methylpiperidin-4-yl)-1,2,4-oxadiazol-3-yl]butan-2-yl}phenyl)pyrimidin-2-amine]
42	1.7	COCCNc1cnc(-c2nc([C@@](C)(c3ccc(-c4cnc(N)nc4)cc3)C(C)C)no2)cn1 [Example 123, 5-{4-[(2R)-2-(5-{5-[(2-methoxyethyl)amino]pyrazin-2-yl}-1,2,4-oxadiazol-3-yl)-3-methylbutan-2-yl]phenyl}pyrimidin-2-amine]
66	8.9	Cc1nc(-c2ccc([C@](C)(c3noc(-c4cnn(CC(=O)N(C)C)c4)n3)C3CC3)cc2)cnc1N [Example 177, 2-[4-(3-{(R)-1-[4-(5-Amino-6-methyl-pyrazin-2-yl)-phenyl]-1-cyclopropyl-ethyl}-[1,2,4]oxadiazol-5-yl)-pyrazol-1-yl]-N,N-dimethyl-acetamide]
320	26	Cn1cnc(-c2nc(C(C)(c3ccc(-c4cnc(N)nc4)cc3)C3CC3)no2)c1 (centres unmarked) [Example 28, 5-(4-{1-cyclopropyl-1-[5-(1-methyl-1H-imidazol-4-yl)-1,2,4-oxadiazol-3-yl]ethyl}phenyl)pyrimidin-2-amine]
29	2.9	Cc1nc(-c2ccc([C@](C)(c3noc(-c4cnn(CC(C)(C)O)c4)n3)C3CC3)cc2)cnc1N [Example 180, 1-[4-(3-{(R)-1-[4-(5-Amino-6-methyl-pyrazin-2-yl)-phenyl]-1-cyclopropyl-ethyl}-[1,2,4]oxadiazol-5-yl)-pyrazol-1-yl]-2-methyl-propan-2-ol]
2500	17	CC(C)C(C)(c1ccc(-c2cnc(N)nc2)cc1)c1noc(C2(C(=O)O)CCCCC2)n1 (centres unmarked) [Example 145, 1-(3-{2-[4-(2-aminopyrimidin-5-yl)phenyl]-3-methylbutan-2-yl}-1,2,4-oxadiazol-5-yl)cyclohexanecarboxylic acid]
150	8.5	Cc1nc(N)ccc1-c1ccc([C@](C)(c2noc(-c3cnn(CC(=O)N(C)C)c3)n2)C2CC2)cc1 [Example 292, 2-[4-(3-{(R)-1-[4-(6-Amino-2-methyl-pyridin-3-yl)-phenyl]-1-cyclopropyl-ethyl}-[1,2,4]oxadiazol-5-yl)-pyrazol-1-yl]-N,N-dimethyl-acetamide]
15	1.3	Cn1cc(-c2nc([C@@](C)(c3ccc(-c4cnc(N)nc4)cc3)C3CC3)no2)cn1 [Example 61, 5-(4-{(1R)-1-cyclopropyl-1-[5-(1-methyl-1H-pyrazol-4-yl)-1,2,4-oxadiazol-3-yl]ethyl}phenyl)pyrimidin-2-amine]
> 5000	470	CN(C)C(=O)Cn1cc(-c2nc(C(C)(c3ccc(-c4cnc(NC5CC5)nc4)cc3)C3CC3)no2)cn1 (centres unmarked) [Example 250, 2-[4-(3-{1-Cyclopropyl-1-[4-(2-cyclopropylamino-pyrimidin-5-yl)-phenyl]-ethyl}[1,2,4]oxadiazol-5-yl)-pyrazol-1-yl]-N,N-dimethyl-acetamide]
14	1.1	COCCn1cc(-c2nc([C@@](C)(c3ccc(-c4cnc(N)nc4)cc3)C(C)C)no2)cn1 [Example 63, 5-{4-[(2R)-2-{5-[1-(2-methoxyethyl)-1H-pyrazol-4-yl]-1,2,4-oxadiazol-3-yl}-3-methylbutan-2-yl]phenyl}pyrimidin-2-amine]
1300	54	CC(C)C(C)(c1ccc(-c2cnc(N)nc2)cc1)c1noc(C(=O)N2CCN(C)CC2)n1 (centres unmarked) [Example 91, (3-{2-[4-(2-aminopyrimidin-5-yl)phenyl]-3-methylbutan-2-yl}-1,2,4-oxadiazol-5-yl)(4-methylpiperazin-1-yl)methanone]
690	32	CC(C)C(C)(c1ccc(-c2cnc(N)nc2)cc1)c1noc(N2CCNC(=O)C2)n1 (centres unmarked) [Example 199, 4-(3-{1-[4-(2-Amino-pyrimidin-5-yl)-phenyl]-1,2-dimethyl-propyl}-[1,2,4]oxadiazol-5-yl)-piperazin-2-one]
